Tests used:
[1] = tested on: ACHN; assay: Concentration required to inhibit growth of human renal (ACHN) cell line; assay type: functional
[2] = tested on: HT-29; assay: Concentration required to inhibit growth of human colon (HT-29) cell line; assay type: functional
[3] = tested on: NCI/ADR-RES; assay: in vitro inhibition of MCF-7/ADR (human breast cancer) cell growth.; assay type: functional
[4] = tested on: MCF7; assay: Concentration required to inhibit growth of human breast (MCF-7) cell line; assay type: functional
[5] = tested on: OVCAR-8; assay: Concentration required to inhibit growth of human ovarian (OVCAR8) cell line; assay type: functional
[6] = tested on: PC-3; assay: Concentration required to inhibit growth of human prostate (PC3) cell line; assay type: functional
[7] = tested on: SK-OV-3; assay: Concentration required to inhibit growth of human ovarian (SK-OV3) cell line; assay type: functional
[8] = tested on: SW-620; assay: Concentration required to inhibit growth of human colon (SW620) cell line; assay type: functional
[9] = tested on: UACC-62; assay: Concentration required to inhibit growth of human melanoma (UACC62) cell line; assay type: functional
[10] = tested on: U-251; assay: Concentration required to inhibit growth of human CNS (U251) cell line; assay type: functional
[11] = tested on: DU-145; assay: In vitro inhibition of DU145 (human prostate cancer) cell growth.; assay type: functional
[12] = tested on: NCI-H522 (Homo sapiens); assay: Concentration required to inhibit growth of human lung (H522) cell line

`O=S(=O)(/C=C/c1ccc(F)cc1F)Cc1ccc(Nc2ncnc3ccccc23)cc1` showed a GI50 [1] of 31 µM, a GI50 [2] greater than 100 µM and a GI50 [3] greater than 100 µM. For the same molecule, the GI50 [4] was greater than 100 µM, the GI50 [5] was greater than 100 µM and the GI50 [6] was greater than 100 µM. For the same molecule, the GI50 [7] was 69 µM, the GI50 [8] was 86 µM and the GI50 [9] was greater than 100 µM. For the same molecule, the GI50 [10] was greater than 100 µM.
`O=S(=O)(/C=C/c1ccc(O)cc1)Cc1ccc(Nc2ncnc3ccccc23)cc1` was tested, and the GI50 [1] was 0.02 µM, the GI50 [11] was 19 µM and the GI50 [2] was 2 µM. The GI50 [4] was 100 µM, the GI50 [5] was 1 µM and the GI50 [6] was 14 µM. The GI50 [7] was 14 µM, the GI50 [8] was 100 µM and the GI50 [9] was 100 µM. For the same molecule, the GI50 [10] was 0.3 µM and the GI50 [12] was 100 µM.
`O=S(=O)(/C=C/c1ccc(Cl)cc1)Cc1ccc(Nc2ncnc3ccccc23)cc1` gave a GI50 [1] greater than 100 µM, a GI50 [11] greater than 100 µM and a GI50 [2] of 73 µM. For the same molecule, the GI50 [3] was greater than 100 µM, the GI50 [4] was 52 µM and the GI50 [5] was greater than 100 µM. The GI50 [6] was 43 µM, the GI50 [7] was 54 µM and the GI50 [8] was 77 µM. For the same molecule, the GI50 [9] was 13 µM, the GI50 [10] was 49 µM and the GI50 [12] was 46 µM.
Molecule `O=S(=O)(/C=C/c1ccc(F)cc1F)Cc1ccc(Nc2ncnc3ccc(Br)cc23)cc1` has a GI50 [1] of 8 µM, a GI50 [2] of 100 µM and a GI50 [3] of 100 µM. For the same molecule, the GI50 [4] was 100 µM, the GI50 [5] was 100 µM and the GI50 [6] was 100 µM. The GI50 [7] was 2 µM, the GI50 [8] was 100 µM and the GI50 [9] was 3 µM. It also gave a GI50 [10] of 32 µM and a GI50 [12] of 100 µM.
`O=S(=O)(/C=C/c1ccc(C(F)(F)F)cc1F)Cc1ccc(Nc2ncnc3cc(Cl)ccc23)cc1` was tested, and the GI50 [1] was greater than 100 µM, the GI50 [11] was greater than 100 µM and the GI50 [2] was greater than 100 µM. The GI50 [3] was greater than 100 µM, the GI50 [4] was greater than 100 µM and the GI50 [5] was greater than 100 µM. For the same molecule, the GI50 [6] was greater than 100 µM, the GI50 [7] was greater than 100 µM and the GI50 [8] was greater than 100 µM. It also gave a GI50 [9] greater than 100 µM, a GI50 [10] greater than 100 µM and a GI50 [12] greater than 100 µM.
`COc1cc2ncnc(Nc3ccc(CS(=O)(=O)/C=C/c4ccc(Cl)cc4Cl)cc3)c2cc1OCCCN1CCOCC1` gave a GI50 [1] of 3.4 µM, a GI50 [11] of 1.3 µM and a GI50 [2] of 4 µM. The GI50 [3] was greater than 100 µM, the GI50 [4] was 54 µM and the GI50 [5] was 12 µM. It also gave a GI50 [6] of 5 µM, a GI50 [7] of 2.4 µM and a GI50 [8] of 7 µM. The GI50 [9] was 23 µM and the GI50 [10] was 4 µM.
Work on `COc1cc2ncnc(Nc3ccc(CS(=O)(=O)/C=C/c4ccc(F)cc4)cc3)c2cc1OCCCN1CCOCC1` yielded a GI50 [1] of 0.2 µM, a GI50 [11] of 4 µM and a GI50 [2] greater than 100 µM. It also gave a GI50 [3] of 3 µM, a GI50 [4] of 3 µM and a GI50 [5] greater than 100 µM. For the same molecule, the GI50 [6] was 28 µM, the GI50 [7] was greater than 100 µM and the GI50 [8] was greater than 100 µM. The GI50 [9] was 55 µM, the GI50 [10] was 18 µM and the GI50 [12] was greater than 100 µM.
Work on `CC(C)(C)c1cc(/C=C/S(=O)(=O)Cc2ccc(Nc3ncnc4ccccc34)cc2)cc(C(C)(C)C)c1O` yielded a GI50 [1] greater than 100 µM, a GI50 [11] of 1 µM and a GI50 [2] of 17 µM. The GI50 [3] was greater than 100 µM, the GI50 [4] was 13 µM and the GI50 [5] was 5 µM. It also gave a GI50 [6] of 7 µM, a GI50 [7] of 3 µM and a GI50 [8] of 9 µM. For the same molecule, the GI50 [9] was 6 µM, the GI50 [10] was 38 µM and the GI50 [12] was 45 µM.
`COc1cc2ncnc(Nc3ccc(CS(=O)(=O)/C=C/c4ccc(F)cc4)cc3)c2cc1OC` showed a GI50 [1] greater than 100 µM, a GI50 [11] greater than 100 µM and a GI50 [2] greater than 100 µM. It also gave a GI50 [3] greater than 100 µM, a GI50 [4] greater than 100 µM and a GI50 [5] greater than 100 µM. It also gave a GI50 [6] greater than 100 µM, a GI50 [7] greater than 100 µM and a GI50 [8] greater than 100 µM. It also gave a GI50 [9] greater than 100 µM, a GI50 [10] greater than 100 µM and a GI50 [12] greater than 100 µM.
`O=S(=O)(/C=C/c1ccc(Cl)cc1Cl)Cc1ccc(Nc2ncnc3cc(Cl)ccc23)cc1` gave a GI50 [1] of 8 µM, a GI50 [2] of 59 µM and a GI50 [3] greater than 100 µM. It also gave a GI50 [4] of 25 µM, a GI50 [5] greater than 100 µM and a GI50 [6] of 38 µM. The GI50 [7] was 48 µM, the GI50 [8] was greater than 100 µM and the GI50 [9] was 32 µM. It also gave a GI50 [10] of 53 µM and a GI50 [12] of 76 µM.
For `O=S(=O)(/C=C/c1ccc(Cl)c(Cl)c1)Cc1ccc(Nc2ncnc3ccc(Br)cc23)cc1`, the GI50 [11] was 17 µM, the GI50 [2] was 27 µM and the GI50 [4] was 14 µM. It also gave a GI50 [5] of 0.1 µM, a GI50 [6] of 11 µM and a GI50 [8] of 5 µM. The GI50 [9] was 30 µM, the GI50 [10] was greater than 100 µM and the GI50 [12] was greater than 100 µM.
With `O=S(=O)(/C=C/c1ccc(F)cc1Cl)Cc1ccc(Nc2ncnc3ccccc23)cc1` the GI50 [1] was 73 µM, the GI50 [2] was 100 µM and the GI50 [3] was 66 µM. The GI50 [4] was 21 µM, the GI50 [5] was 100 µM and the GI50 [6] was 100 µM. The GI50 [7] was 44 µM, the GI50 [8] was 100 µM and the GI50 [9] was 100 µM. The GI50 [10] was 100 µM and the GI50 [12] was 100 µM.
For `O=S(=O)(/C=C/c1ccc(Br)cc1)Cc1ccc(Nc2ncnc3ccc(Br)cc23)cc1`, the GI50 [11] was 3 µM, the GI50 [2] was 10 µM and the GI50 [4] was 5 µM. It also gave a GI50 [5] of 2 µM, a GI50 [6] of 34 µM and a GI50 [8] greater than 100 µM. For the same molecule, the GI50 [9] was greater than 100 µM, the GI50 [10] was 11 µM and the GI50 [12] was 20 µM.

Reference: ChEMBL document CHEMBL1146712, “Synthesis and biological evaluation of [4-(2-phenylethenesulfonylmethyl)phenyl]-quinazolin-4-yl-amines as orally active anti-cancer agents” (2004)
